The source of these data is PubChem BioAssay (NCI).

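Exposure lasted 48 hours, with cells grown in 96-well plates and compounds tested at five concentrations. GI50: concentration for 50% inhibition of growth. At the TGI there is no net growth.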 Where only a bound is given, the exact number is not on record here.

Among the test systems are SNB-75 CNS; SF-295 CNS; A498 renal; NCI-H226 lung; HT29 colon; SF-539 CNS; HS 578T breast; SF-268 CNS.
Common to all, as to assay: NCI tumour cell line growth inhibition, 48 h

`COC(=O)OCc1ccc2c(c1)C(=O)c1c-2n(CCCBr)c(=O)c2cc([N+](=O)[O-])ccc12`: the GI50 in the assay on SNB-75 CNS was 14900 nM; with SF-295 CNS it was 31700 nM; in the assay on A498 renal, 57600 nM; with NCI-H226 lung, above 100 µM; in the assay with HT29 colon, above 100 µM; in the assay with SF-539 CNS it was 56 µM. The GI50 was 31000 nM in the assay with HS 578T breast and above 100000 nM with SF-268 CNS. Also, the TGI in the assay on SNB-75 CNS is 34.4 µM; in the assay with SF-295 CNS it was above 100 µM; in the assay on A498 renal, above 100 µM; with NCI-H226 lung it was above 100 µM; in the assay on HT29 colon, above 100 µM; with SF-539 CNS, above 100 µM. Also, the TGI in the assay with HS 578T breast and in the assay with SF-268 CNS was above 100 µM in each case.

On to `Cc1cccc2c1O/C(=C\c1ccc([N+](=O)[O-])o1)C2=O`, for which the GI50 in the assay on SNB-75 CNS is 1640 nM; in the assay with SF-295 CNS, 2000 nM; in the assay on A498 renal, 1760 nM; with NCI-H226 lung it was 1.42 µM; in the assay on HT29 colon, 0.324 µM; in the assay with SF-539 CNS, 1.53 µM. In addition, the GI50 in the assay on HS 578T breast was 2250 nM; in the assay on SF-268 CNS, 1560 nM. Further, the TGI in the assay with SNB-75 CNS worked out at 5.8 µM; in the assay with SF-295 CNS, 6.46 µM; in the assay on A498 renal it was 4.63 µM; with NCI-H226 lung, 3.14 µM; with HT29 colon, 1.27 µM; with SF-539 CNS, 3.22 µM. Moreover, the TGI in the assay with HS 578T breast is above 25 µM; in the assay on SF-268 CNS it was 3.94 µM.

With `C1=C(c2ccccc2)C(c2ccc(OCCN3CCCCC3)cc2)Oc2ccccc21` (stereo unspecified), the GI50 is 1600 nM in the assay with SNB-75 CNS; 1720 nM in the assay on SF-295 CNS; 1670 nM with A498 renal; 4.08 µM in the assay with NCI-H226 lung; 1.76 µM in the assay with HT29 colon; 1.62 µM with SF-539 CNS. For the same compound, the figures for the GI50 in the assay with HS 578T breast and in the assay with SF-268 CNS were 2180 nM and 2660 nM, respectively. In addition, the TGI in the assay on SNB-75 CNS turned out to be 3.44 µM; with SF-295 CNS it was 3.29 µM; in the assay on A498 renal it was 3.17 µM; in the assay on NCI-H226 lung, 16.7 µM; in the assay on HT29 colon, 3.86 µM; in the assay on SF-539 CNS it was 3.08 µM. Moreover, the TGI with HS 578T breast is 5.23 µM; in the assay with SF-268 CNS it was 9.93 µM.

On to `Cc1cc(C)n(C(=O)c2nn(-c3ccc(Cl)cc3)cc2O)n1`, for which the GI50 with SNB-75 CNS was 3520 nM; in the assay on SF-295 CNS, 1810 nM; in the assay on A498 renal, 2900 nM; in the assay on NCI-H226 lung, 4.66 µM; with HT29 colon, 32.9 µM; with SF-539 CNS, 3.05 µM. The GI50 in the assay with HS 578T breast is 3210 nM; in the assay with SF-268 CNS, 4130 nM. Further, the TGI in the assay on SNB-75 CNS was 73.1 µM; in the assay with SF-295 CNS, 6.73 µM; in the assay with A498 renal, 8.77 µM; with NCI-H226 lung it was 98.9 µM; in the assay on HT29 colon, above 100 µM; in the assay on SF-539 CNS it was 35.1 µM. Moreover, the TGI with HS 578T breast and with SF-268 CNS was above 100 µM in each case.

On to `O=C(O)c1cscc1Cc1cccs1`, for which the TGI with SNB-75 CNS, in the assay with SF-295 CNS, in the assay on A498 renal, in the assay on NCI-H226 lung, in the assay on HT29 colon and with SF-539 CNS was above 100 µM throughout. In addition, the TGI in the assay on HS 578T breast and in the assay on SF-268 CNS was above 100 µM each time.

`COc1ccc2c(c1)cn1c3ccc(O)cc3[nH]c(=O)c21`: the GI50 in the assay on SNB-75 CNS was 227 nM; in the assay with SF-295 CNS it was 248 nM; with A498 renal it was 377 nM; with NCI-H226 lung it was 0.181 µM; with HT29 colon, 0.411 µM; in the assay with SF-539 CNS, 0.175 µM. For the same compound, the results for the GI50 in the assay on HS 578T breast and in the assay on SF-268 CNS were 481 nM and 136 nM, respectively. Moreover, the TGI in the assay with SNB-75 CNS was determined as 13.6 µM; in the assay on SF-295 CNS, 3.52 µM; with A498 renal, 20.7 µM; in the assay with NCI-H226 lung it was 6.92 µM; in the assay with HT29 colon it was 2.18 µM; in the assay with SF-539 CNS it was 1.16 µM. The TGI with HS 578T breast was 25.2 µM; in the assay with SF-268 CNS, 19.1 µM.

On to `COc1cc(C2=NN(c3ccc(S(N)(=O)=O)cc3)C(c3ccc(Cl)cc3)C2)cc(OC)c1OC` (stereo unspecified), for which the GI50 is 2220 nM in the assay on SNB-75 CNS; 2530 nM in the assay on SF-295 CNS; 1930 nM with A498 renal; 7.25 µM with NCI-H226 lung; 4.15 µM with HT29 colon; 5.12 µM with SF-539 CNS. In addition, the GI50 with HS 578T breast is 3580 nM; in the assay with SF-268 CNS, 6860 nM. Besides, the TGI with SNB-75 CNS is above 100 µM; with SF-295 CNS it was 6.55 µM; with A498 renal it was 7.68 µM; in the assay on NCI-H226 lung, above 100 µM; with HT29 colon it was above 100 µM; with SF-539 CNS, above 100 µM. In addition, the TGI in the assay on HS 578T breast and with SF-268 CNS was above 100 µM throughout.

Regarding `COc1ccc(-c2nnc(N3CCN(C(=O)CN4CCN(c5ccc(Cl)cc5)CC4)CC3)nc2-c2ccc(OC)cc2)cc1`, the GI50 was 19500 nM in the assay with SNB-75 CNS; 49400 nM with SF-295 CNS; 27700 nM with A498 renal; 46.8 µM with NCI-H226 lung; 4.74 µM with HT29 colon; 15.1 µM with SF-539 CNS. The GI50 in the assay with HS 578T breast is 23500 nM; in the assay with SF-268 CNS, above 100000 nM. In addition, the TGI was 65.3 µM with SNB-75 CNS; above 100 µM with SF-295 CNS; 72.2 µM in the assay with A498 renal; above 100 µM with NCI-H226 lung; above 100 µM in the assay on HT29 colon; 74.8 µM in the assay on SF-539 CNS. Besides, the TGI in the assay with HS 578T breast and in the assay with SF-268 CNS was above 100 µM in each case.

For the compound `CCCCCCC#CC#Cc1cccc(=O)o1`, the GI50 was 4340 nM in the assay with SNB-75 CNS; 6750 nM in the assay with SF-295 CNS; 14900 nM with A498 renal; 2.07 µM in the assay on NCI-H226 lung; 3.69 µM in the assay with HT29 colon; 3.19 µM with SF-539 CNS. Further, the GI50 with HS 578T breast is 1990 nM; in the assay with SF-268 CNS it was 2690 nM. Moreover, the TGI with SNB-75 CNS was 37.3 µM; in the assay with SF-295 CNS, 22.4 µM; with A498 renal, 29.1 µM; with NCI-H226 lung, 4.7 µM; in the assay with HT29 colon, 34.6 µM; in the assay on SF-539 CNS, 12 µM. For the same compound, the TGI in the assay with HS 578T breast was determined as 6.49 µM; in the assay with SF-268 CNS, 11.9 µM.
